According to patent publication US6303639A, “Propanolamine derivatives substituted by heterocyclic radicals, processes for their preparation, pharmaceuticals comprising these compounds and their use” (Aventis Pharma Deutschland GmbH, priority 1998, dated 2001):

What follows are compounds tested against T1, Na+-dependent bile acid transportation system (intestinal bile acid transportation system in the terminal small intestine) (Oryctolagus cuniculus, UniProt Q28727) (assay: Inhibition of Na+-dependent [3H]-taurocholate uptake in brush border membrane vesicles of the ileum of rabbits). Conditions: rabbit ileum brush border membrane vesicles, 50 μM taurocholate, usually 1 minute incubation.
T1 construct: Brush border membrane vesicles from the intestinal cells of the small intestine were prepared by the so-called Mg^2+ precipitation method; from tissue; host or cells: brush border membrane vesicles from the terminal 7/10 of the small intestine (ileum) of male New Zealand rabbits
T1 sequence (Q28727 1-347): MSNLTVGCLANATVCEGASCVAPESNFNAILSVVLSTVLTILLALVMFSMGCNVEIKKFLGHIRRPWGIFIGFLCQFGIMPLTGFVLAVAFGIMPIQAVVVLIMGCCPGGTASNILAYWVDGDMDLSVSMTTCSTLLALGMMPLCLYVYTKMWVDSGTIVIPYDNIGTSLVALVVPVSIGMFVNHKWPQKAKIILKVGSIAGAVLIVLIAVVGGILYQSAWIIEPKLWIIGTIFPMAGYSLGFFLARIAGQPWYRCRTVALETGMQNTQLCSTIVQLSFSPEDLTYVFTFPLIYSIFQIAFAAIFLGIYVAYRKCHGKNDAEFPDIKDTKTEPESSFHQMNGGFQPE
Assay type: biochemical
Description: Biological testing of the compounds according to the invention was carried out by determining the inhibition of [^3 H]-taurocholate uptake in brush border membrane vesicles of the ileum of rabbits. The inhibition test was carried out as described below.
Test 1. Preparation of Brush Border Membrane Vesicles from the Ileum of Rabbits
Brush border membrane vesicles from the intestinal cells of the small intestine were prepared by the so-called Mg^2+ precipitation method as follows. Male New Zealand rabbits (2 to 2.5 kg body weight) were sacrificed by intravenous injection of 0.5 ml of T61®, an aqueous solution of 2.5 mg of tetracaine HCl, 100 mg of embutramide and 25 mg of mebezonium iodide. The small intestine was removed and flushed with ice-cold physiological saline solution. The terminal 7/10 of the small intestine (measured in the oral-rectal direction, i.e. the terminal ileum, which contains the active Na^+ -dependent bile acid transportation system) was used for preparation of the brush border membrane vesicles. The intestines were frozen in plastic bags under nitrogen at -80° C.
For preparation of the membrane vesicles, the frozen intestines were thawed at 30° C. in a water-bath. The mucosa were peeled off and suspended in 60 ml of ice-cold 12 mM TRIS-HCl buffer (pH 7.1)/300 mM mannitol, 5 mM EGTA/10 mg/l of phenylmethyl-sulfonyl fluoride/1 mg/l of trypsin inhibitor from soybeans (32 U/mg)/0.5 mg/l of trypsin inhibitor from the bovine lung (193 U/mg)/5 mg/l of bacitracin. After dilution to 300 ml with ice-cold distilled water, the mixture was homogenized with an Ultraturrax (18-rod, IKA Werk Staufen, Germany) for 3 minutes at 75% of the maximum power, while cooling with ice. After addition of 3 ml of 1 M MgCl2 solution (final concentration 10 mM), the mixture was left to stand for exactly 1 minute at 0° C. The cell membranes aggregated by addition of Mg^2+ and precipitated, with the exception of the brush border membranes. After centrifugation for 15 minutes at 3000×g (5000 rpm, SS-34 rotor), the precipitate was discarded and the supernatant, which contained the brush border membranes, was centrifuged at 48000×g (20000 rpm, SS-34 rotor) for 30 minutes. The supernatant was discarded and the precipitate was rehomogenized in 60 ml of 12 mM TRIS/HCI buffer (pH 7.1)/60 mM mannitol, 5 mM EGTA with a Potter Elvejhem homogenizer (Braun, Melsungen, 900 rpm, 10-stroke). After addition of 0.1 ml of 1 M MgCl2 solution and an incubation time of 15 minutes at 0° C., the mixture was centrifuged again at 3000×g for 15 minutes. The supernatant was then centrifuged again at 48000×g (20000 rpm, SS-34 rotor) for 30 minutes. The precipitate was taken up in 30 ml of 10 mM TRIS/HEPES buffer (pH 7.4)/300 mM mannitol and resuspended by 20 strokes in a Potter Elvejhem homogenizer at a 1000 rpm. After centrifugation at 48000×g (20000 rpm, SS-34 rotor) for 30 minutes, the precipitate was taken up in 0.5 to 2 ml of TRIS/HEPES buffer (pH 7.4)/280 mM mannitol (final concentration 20 mg/ml) and resuspended with the aid of a tuberculin syringe with a 27-gauge needle. The vesicles were either used for the transportation investigations directly after the preparation, or stored in 4 mg portions in liquid nitrogen at -196° C.
Test 2. Inhibition of the Na^+ -dependent [^3 H]Taurocholate Uptake in Brush Border Member Vesicles of the Ileum
The uptake of substrates into the brush border membrane vesicles described above was determined by means of the so-called membrane filtration technique. 10 μl of the vesicle suspension (100 μg of protein) were pipetted as drops onto the wall of a polystyrene incubation tube (11×70 mm) which contained the incubation medium with the corresponding ligands (90 μl). […]
With `OC(c1ccccc1)C(c1ccc2ccccc2n1)C(Nc1ccccn1)c1ccccc1` (stereo not shown) [Example 2] the “Biological Test: quotient of the IC50Na values of the reference substance taurochenodeoxycholate (TCDC) and of the test substance” value (“Biological Test: quotient” below) was 0.83.
With `OC(c1nccs1)C(c1ccccc1)C(Nc1ccccn1)c1ccccc1` (stereo not shown) [Example 4] the “Biological Test: quotient” value was 0.1.
With `OC(c1ccccc1)C(c1cnc2ccccc2n1)C(Nc1ccccn1)c1ccccc1` (stereo not shown) [Example 6] the “Biological Test: quotient” value was 0.57.
In the case of `OC(c1ccccc1)C(c1cnc2ccccc2n1)C(Nc1ccccn1)c1ccccc1` (stereo not shown) [Example 7], the “Biological Test: quotient” value is reported as 0.22.
With `OC(c1ccccc1)C(c1cnc2ccccc2c1)C(Nc1ccccn1)c1ccccc1` (stereo not shown) [Example 9] the “Biological Test: quotient” value was 0.35.
With `OC(c1cnccn1)C(c1ccccn1)C(Nc1ccccn1)c1ccccc1` (stereo not shown) [Example 11] the “Biological Test: quotient” value was 0.24.
In the case of `OC(c1cnccn1)C(c1ccccn1)C(Nc1ccccn1)c1ccccc1` (stereo not shown) [Example 12], the “Biological Test: quotient” value is reported as 0.24.
For `Cc1nc(C)c(C(O)C(c2ccccn2)C(Nc2ccccn2)c2ccccc2)s1` (stereo not shown) [Example 14], the “Biological Test: quotient” value was 0.66.
In the case of `OC(c1cnc2ccccc2c1)C(c1ccccn1)C(Nc1ccccn1)c1ccccc1` (stereo not shown) [Example 18], the “Biological Test: quotient” value is reported as 0.37.
With `OC(c1cnc2ccccc2c1)C(c1ccccn1)C(Nc1ccccn1)c1ccccc1` (stereo not shown) [Example 19] the “Biological Test: quotient” value was 0.42.
With `OC(c1cnc2ccccc2c1)C(c1ccccn1)C(Nc1ccccn1)c1ccccc1` (stereo not shown) [Example 20] the “Biological Test: quotient” value was 0.23.
In the case of `OC(c1cccs1)C(c1ccccn1)C(Nc1ccccn1)c1ccccc1` (stereo not shown) [Example 21], the “Biological Test: quotient” value is reported as 1.16.
`OC(c1cccs1)C(c1ccccn1)C(Nc1ccccn1)c1ccccc1` (stereo not shown) [Example 22] was tested, and the “Biological Test: quotient” value was 0.19.
For `OC(c1cccs1)C(c1ccccn1)C(Nc1ccccn1)c1ccccc1` (stereo not shown) [Example 23], the “Biological Test: quotient” value was 0.23.
With `OC(c1cccs1)C(c1ccccn1)C(Nc1ccccn1)c1ccccc1` (stereo not shown) [Example 24] the “Biological Test: quotient” value was 0.22.
`Cc1nc(C(O)C(c2ccccn2)C(Nc2ccccn2)c2ccccc2)c(C)o1` (stereo not shown) [Example 25] was tested, and the “Biological Test: quotient” value was 0.46.
`OC(c1ccc(Cl)s1)C(c1ccccn1)C(Nc1ccccn1)c1ccccc1` (stereo not shown) [Example 26] was tested, and the “Biological Test: quotient” value was 0.26.
In the case of `Cc1ccc(C(O)C(c2ccccn2)C(Nc2ccccn2)c2ccccc2)s1` (stereo not shown) [Example 27], the “Biological Test: quotient” value is reported as 1.02.
In the case of `Cc1noc(C)c1C(O)C(c1ccccn1)C(Nc1ccccn1)c1ccccc1` (stereo not shown) [Example 31], the “Biological Test: quotient” value is reported as 0.37.
In the case of `Cc1nc(C(O)C(c2ccccn2)C(Nc2ccccn2)c2ccccc2)sc1C` (stereo not shown) [Example 33], the “Biological Test: quotient” value is reported as 0.24.
In the case of `COc1ccsc1C(O)C(c1ccccn1)C(Nc1ccccn1)c1ccccc1` (stereo not shown) [Example 37], the “Biological Test: quotient” value is reported as 9.53.
With `Cc1nc(C)c(C(O)C(c2ccccn2)C(Nc2ccccn2)c2ccccc2N)s1` (stereo not shown) [Example 39] the “Biological Test: quotient” value was 0.65.
`OC(c1cc(-c2ccccc2)on1)C(c1ccccn1)C(Nc1ccccn1)c1ccccc1` (stereo not shown) [Example 41] was tested, and the “Biological Test: quotient” value was 0.60.
`Cn1ccnc1C(O)C(c1ccccn1)C(Nc1ccccn1)c1ccccc1` (stereo not shown) [Example 42] was tested, and the “Biological Test: quotient” value was 0.87.
With `Cc1noc(C)c1C(O)C(c1ccccn1)C(Nc1ccccn1)c1ccccc1[N+](=O)[O-]` (stereo not shown) [Example 43] the “Biological Test: quotient” value was 0.23.
`Cc1noc(C)c1C(O)C(c1ccccn1)C(Nc1ccccn1)c1ccccc1N` (stereo not shown) [Example 44] was tested, and the “Biological Test: quotient” value was 0.74.
With `OC(c1cc2ccccc2[nH]1)C(c1ccccn1)C(Nc1ccccn1)c1ccccc1` (stereo not shown) [Example 46] the “Biological Test: quotient” value was 0.22.
With `Cn1ncnc1C(O)C(c1ccccn1)C(Nc1ccccn1)c1ccccc1` (stereo not shown) [Example 47] the “Biological Test: quotient” value was 0.35.
`Cc1nc(C(O)C(c2ccccn2)C(Nc2ccccn2)c2ccccc2N)c(C)o1` (stereo not shown) [Example 48] was tested, and the “Biological Test: quotient” value was 0.80.
In the case of `Cc1cc(C(O)C(c2ccccn2)C(Nc2ccccn2)c2ccccc2N)no1` (stereo not shown) [Example 49], the “Biological Test: quotient” value is reported as 0.77.
In the case of `Cc1nc(-c2ccncc2)sc1C(O)C(c1ccccn1)C(Nc1ccccn1)c1ccccc1` (stereo not shown) [Example 50], the “Biological Test: quotient” value is reported as 0.79.
For `Cc1nc(-c2ccncc2)sc1C(O)C(c1ccccn1)C(Nc1ccccn1)c1ccccc1` (stereo not shown) [Example 51], the “Biological Test: quotient” value was 0.52.
With `Cc1nc(-c2ccncc2)sc1C(O)C(c1ccccn1)C(Nc1ccccn1)c1ccccc1` (stereo not shown) [Example 52] the “Biological Test: quotient” value was 0.40.
For `Nc1ccccc1C(Nc1ccccn1)C(c1ccccn1)C(O)c1ccon1` (stereo not shown) [Example 55], the “Biological Test: quotient” value was 0.31.
